In US10041937B2, “Macrophage identification agent, and identification method, sorting method, evaluation method, screening method and kit using the macrophage identifier agent” (CANON KABUSHIKI KAISHA, priority 2013, dated 2018):

Tested on: M1 macrophages and M2 macrophages differentiated from mouse bone marrow cells
Assay: Subtype identification by staining and flow cytometry of M1 and M2 macrophages differentiated from mouse bone marrow cells
Assay type: cell-based, Balb/c mouse
How it was run: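 Balb/c mouse bone marrow cells were differentiated to macrophages with 50 ng/mL M-CSF over two 3–4-day periods, then polarized for 3 days to M1 (interferon-γ plus polyliposaccharide) or M2 (IL-4). Live cells (aqua dye-negative) were analysed by flow cytometry; resolution R = |FM1−FM2|/(WM1+WM2) from histogram peak positions and widths indexed subtype discrimination.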

[1] = fluorescence intensity at peak top of histogram, compound 1 μM, 37° C., 30 minutes

SMILES: CCOC(=O)CCN1C(=O)/C(=C\c2ccc3c(c2)C2CCCC2N3CC)SC1=S (centres unmarked) [compound (1)]
- Resolution ratio R (R=|FM1−FM2|/(WM1+WM2), compound 1 μM): 1.150
- Peak position of M1 macrophage [1]: 85.8
- Peak position of M2 macrophage [1]: 12.4
- Evaluation of macrophage subtype identification (rated from resolution R): A (The compound is very good in the subtype identification (namely, the resolution R is 0.5 or more))
- subtype more strongly stained (two compounds used in combination, each 1 μM): the M1 macrophages are more strongly stained than the M2 macrophages
